Read-outs that look alike come from different tables or passages of the source.
Columns and labels:
[1] = tested on: P. falciparum; assay: Study 1: phase 2 trial, efficacy of SAR97276A in uncomplicated falciparum malaria patients; type: in vivo, Plasmodium falciparum; conditions: for Median time to 50% parasite reduction (95% CI) / Median time to 90% parasite reduction (95% CI): Kaplan–Meier; for Recurrences up to day 28: patients judged successfully treated after 72 h
Experimental: The study was designed to enroll up to 210 malaria patients in sequential cohorts. A staggered trial design was planned to assess a single, IM dose of SAR97276A (0.18 mg/kg, or 12.5 mg fixed dose) first in adults and then progressively in children (age 7–17 years) and young children (age 0.5–7 years). Age de-escalation of the study was only allowed if threshold response rate in the respective study cohort was met (26 patients out of 30 patients need to have met the 4 criteria of the primary endpoint at 72 h plus adequate safety results). If efficacy criteria were not met but safety was acceptable, SAR97276A would be tested as a 3-day IM regimen (3 injections, 24 h apart) in an additionally recruited 30 patients of the respective cohort. Subsequently, in case of acceptable safety and efficacy, all following cohorts were treated with the 3-day IM regimen. In parallel, SAR97276A was planned to be tested as a single, IV dose (0.14 mg/kg or 10 mg fixed dose) first in adults and then in young children with severe malaria, if threshold response rate was met. An overview of this adaptive study design can be seen in Fig. 1 and Table 1.
The following age cohorts were planned to be enrolled: (i) Adults aged 18–65 years, body weight ≥50 kg, and uncomplicated malaria with P. falciparum ≥100 parasites/µL; (ii) children aged 7–17 years, and uncomplicated malaria with P. falciparum ≥1000 parasites/µL, and (iii) young children aged of 0.5–7 years with uncomplicated malaria (P. falciparum count ≥1000 parasites/µL) and as an additional group with symptoms or signs of severe malaria according to WHO [9]. Adults received SAR97276A either by IM (study group 1A and 1B) or by IV route (study group 1C). Children received SAR97276A only by IM injection (study group 1D). Young children (0.5–7 years) both with uncomplicated and with severe malaria were not included as Study 1 was stopped before reaching these cohorts due to lack of efficacy.
Study duration and follow-up In both studies, study duration was 28 days for each patient including a screening period of up to 12 h before inclusion into the study. Participants were hospitalized for at least 3 days (72 h) after the start of treatment. Follow-up visits were done on day 6, 8, 14 ± 2, 21 ± 2, 28 ± 2 (Study 1); and day 7, 14 ± 2, 21 ± 2, 28 ± 2 (Study 2). Patient examination Fever measurements and thick blood smears were done every 6 h until 72 h and at each follow-up visit. Parasitemia was determined microscopically by Giemsa stained thick blood smear by two trained microscopists blinded to each other. Safety assessment Safety analysis was based on AEs including vision assessment recorded from baseline until day 28 (in binocular conditions, for near and distant visual acuity, using standard optotypes appropriate for patient’s age and reading ability. Tests with standard corrective glasses (+3 and −3 diopters) were performed in case of visual adverse events, to assess whether vision improved or worsened with corrective glasses). Laboratory tests including hematology, biochemistry and urine analysis were done at baseline, day 2, 4, 28 (Study 1), or baseline, day 2, 4, 14, 28 (Study 2); vital signs were recorded at baseline, every 6 h until 72 h and on each follow up visit. An electrocardiogram (ECG) was done at baseline, day 4, 28 (Study 1), or baseline, 48 h, 72 h, day 28 (Study 2). For Study 2 respiratory parameters (respiratory rate, peak flow, efficiency of cough) were also checked at baseline and 30 min after first dose on day 1, 2 and 3.
Definition of fever clearance Fever was defined as temperature ≥38 °C.
Definition of general condition improvement The symptoms were scored at baseline and every 6 h up to day 4 (72 h), including headache, fatigue, nausea-vomiting and abdominal pain. The symptoms were scored according to the following scale: absent -0-, mild -1-, moderate -2- and severe -3-. The total clinical score ranged between 0 and 12. […]

[2] = tested on: malaria mouse model; design: method as in PMID 11847346, PMID 15492221, PMID 12878525; conditions: cited from earlier work; for Curative 4-day dose: mouse model
[3] = tested on: malaria monkey model; design: method as in PMID 11847346, PMID 15492221, PMID 12878525; conditions: cited from earlier work
[4] = tested on: P. falciparum laboratory and clinical isolates; design: method as in PMID 11847346, PMID 15492221; conditions: cited from earlier work
[5] = Group 1A: 1 day IM 0.18 mg/kg, adults, N=34
[6] = Group 1A: 1 day IM 0.18 mg/kg, adults, PCR data available 12/14
[7] = Group 1B: 3 days IM 0.18 mg/kg, adults, N=30
[8] = Group 1B: 3 days IM 0.18 mg/kg, adults, PCR data available 11/13
[9] = Group 1C: 1 day IV 0.14 mg/kg, adults, N=30
[10] = Group 1C: 1 day IV 0.14 mg/kg, adults, PCR data available 10/15
[11] = Group 1D: 3 days IM 0.18 mg/kg, children
[12] = Group 1D: 3 days IM 0.18 mg/kg, children, N=19
[13] = Group 1D: 3 days IM 0.18 mg/kg, children, PCR data available 8/8

Q: Which “General condition improvement at 48 h: Failure” value [1, 5] does the source give for Cc1c(CCO)sc[n+]1CCCCCCCCCCCC[n+]1csc(CCO)c1C [SAR97276A] here?
A: 2 (6%)

Q: What about the “General condition improvement at 48 h: Success” value [1, 5] of the same molecule?
A: 32 (94%)

Q: And the “Parasite reduction (at least 90% at 72 h): Failure” value [1, 5]?
A: 11 (32%)

Q: What about the “Parasite reduction (at least 90% at 72 h): Success” value [1, 5] of the same molecule?
A: 23 (68%)

Q: What about the “Rescue therapy criterion (no need for rescue therapy): Failure” value [1, 5] of the same molecule?
A: 5 (15%)

Q: What about the “Rescue therapy criterion (no need for rescue therapy): Success” value [1, 5] of the same molecule?
A: 29 (85%)

Q: And the “Median time to 50% parasite reduction (95% CI)” value [1, 5]?
A: 18.0 (12.0–24.0) h

Q: And the “Median time to 90% parasite reduction (95% CI)” value [1, 5]?
A: 30.0 (18.0–30.0) h

Q: What about the “New infection (PCR genotyped recurrences up to day 28)” value [1, 6] of the same molecule?
A: 9 (75%)

Q: And the “Recrudescences (PCR genotyped recurrences up to day 28)” value (from here on “Recrudescences”) [1, 6]?
A: 3 (25%)

Q: And the “Recurrences up to day 28” value ([1]; Group 1A: 1 day IM 0.18 mg/kg, adults)?
A: 14

Q: What about the “General condition improvement at 48 h: Failure” value [1, 7] of the same molecule?
A: 2 (7%)

Q: What about the “General condition improvement at 48 h: Success” value [1, 7] of the same molecule?
A: 28 (93%)

Q: What about the “Parasite reduction (at least 90% at 72 h): Failure” value [1, 7] of the same molecule?
A: 2 (7%)

Q: What about the “Parasite reduction (at least 90% at 72 h): Success” value [1, 7] of the same molecule?
A: 28 (93%)

Q: What about the “Rescue therapy criterion (no need for rescue therapy): Failure” value [1, 7] of the same molecule?
A: 1 (3%)

Q: What about the “Rescue therapy criterion (no need for rescue therapy): Success” value [1, 7] of the same molecule?
A: 29 (97%)

Q: And the “Median time to 50% parasite reduction (95% CI)” value [1, 7]?
A: 18.0 (6.0–24.0) h

Q: What about the “Median time to 90% parasite reduction (95% CI)” value [1, 7] of the same molecule?
A: 24.0 (12.0–36.0) h

Q: What about the “New infection (PCR genotyped recurrences up to day 28)” value [1, 8] of the same molecule?
A: 6 (54.5%)

Q: What about the “Recrudescences” value [1, 8] of the same molecule?
A: 5 (45.5%)

Q: And the “Recurrences up to day 28” value ([1]; Group 1B: 3 days IM 0.18 mg/kg, adults)?
A: 13

Q: What about the “General condition improvement at 48 h: Failure” value [1, 9] of the same molecule?
A: 1 (3%)

Q: And the “General condition improvement at 48 h: Success” value [1, 9]?
A: 29 (97%)

Q: What about the “Parasite reduction (at least 90% at 72 h): Failure” value [1, 9] of the same molecule?
A: 7 (23%)

Q: What about the “Parasite reduction (at least 90% at 72 h): Success” value [1, 9] of the same molecule?
A: 23 (77%)

Q: And the “Rescue therapy criterion (no need for rescue therapy): Failure” value [1, 9]?
A: 1 (3%)

Q: And the “Rescue therapy criterion (no need for rescue therapy): Success” value [1, 9]?
A: 29 (97%)

Q: And the “Median time to 50% parasite reduction (95% CI)” value [1, 9]?
A: 9.0 (6.0–18.0) h

Q: What about the “Median time to 90% parasite reduction (95% CI)” value [1, 9] of the same molecule?
A: 30.0 (18.0–30.0) h

Q: And the “New infection (PCR genotyped recurrences up to day 28)” value [1, 10]?
A: 6 (60%)

Q: And the “Recrudescences” value [1, 10]?
A: 4 (40%)

Q: And the “Recurrences up to day 28” value ([1]; Group 1C: 1 day IV 0.14 mg/kg, adults)?
A: 15

Q: And the “Recrudescence of the same parasite until day 14 in successfully cured children (assessed after 72 h)” value [1, 11]?
A: 3/13

Q: And the “Enrolled patients failed to meet the predetermined efficacy response criteria” value ([1]; Group 1D: 3 days IM 0.18 mg/kg, children's cohort)?
A: 5/19

Q: What about the “General condition improvement at 48 h: Failure” value [1, 12] of the same molecule?
A: 1 (5%)

Q: What about the “General condition improvement at 48 h: Not evaluable” value [1, 12] of the same molecule?
A: 1 (5%)

Q: And the “General condition improvement at 48 h: Success” value [1, 12]?
A: 17 (90%)

Q: And the “Parasite reduction (at least 90% at 72 h): Failure” value [1, 12]?
A: 5 (26%)

Q: And the “Parasite reduction (at least 90% at 72 h): Not evaluable” value [1, 12]?
A: 0

Q: What about the “Parasite reduction (at least 90% at 72 h): Success” value [1, 12] of the same molecule?
A: 14 (74%)

Q: What about the “Rescue therapy criterion (no need for rescue therapy): Failure” value [1, 12] of the same molecule?
A: 4 (21%)

Q: What about the “Rescue therapy criterion (no need for rescue therapy): Not evaluable” value [1, 12] of the same molecule?
A: 0

Q: What about the “Rescue therapy criterion (no need for rescue therapy): Success” value [1, 12] of the same molecule?
A: 15 (79%)

Q: And the “Median time to 50% parasite reduction (95% CI)” value [1, 12]?
A: 24.0 (12.0–24.0) h

Q: And the “Median time to 90% parasite reduction (95% CI)” value [1, 12]?
A: 24.0 (24.0–30.0) h

Q: What about the “New infection (PCR genotyped recurrences up to day 28)” value [1, 13] of the same molecule?
A: 0

Q: What about the “Recrudescences” value [1, 13] of the same molecule?
A: 8 (100%)

Q: And the “Recurrences up to day 28” value [1, 11]?
A: 8

Q: And the “Recurrences in the successfully treated patients until day 28, total” value ([1]; Study 1, all groups)?
A: 50

Q: What about the “New infections among genotyped recurrences, total” value ([1]; Study 1, all groups, 41 recurrences genotyped by PCR) of the same molecule?
A: 21

Q: And the “Efficacy in malaria mouse model” value [2]?
A: highly efficacious

Q: And the “Curative 4-day dose” value ([2]; orally)?
A: 20 to 45 mg/kg/day

Q: What about the “Curative 4-day dose” value ([2]; parenterally) of the same molecule?
A: 1 mg/kg/day

Q: What about the “Efficacy in malaria monkey model” value [3] of the same molecule?
A: highly efficacious

Q: And the “In vitro-activity against P. falciparum laboratory and clinical isolates” value [4]?
A: powerful in vitro-activity

From PMC5418711, “Safety and efficacy of the choline analogue SAR97276 for malaria treatment: results of two phase 2, open-label, multicenter trials in African patients” (Malaria Journal, 2017)
